# Measurements reported in patent US20250051347A1, “BIFUNCTIONAL CHIMERIC HETEROCYCLIC COMPOUND AND USE THEREOF AS ANDROGEN RECEPTOR DEGRADER” (Hinova Pharmaceuticals, Inc., priority 2021, published 2025).
# Where two headings read alike, the source gives them in different places.
# What was measured:
# [1] = target: T1, androgen receptor (AR) splicing variant AR-v7 (Homo sapiens, UniProt P10275); assay: Degradation activity on androgen receptor splicing variant AR-v7 in 22RV1 cells (ELISA); format: cell-based; conditions: AR-v7 degradation in 22RV1 cells, 48 h, class symbols
# T1 construct: The degradation activity of compounds on AR-v7 in 22RV1 cells; host or cells: 22RV1 cells
# T1 sequence (P10275 1-644 isoform P10275-3): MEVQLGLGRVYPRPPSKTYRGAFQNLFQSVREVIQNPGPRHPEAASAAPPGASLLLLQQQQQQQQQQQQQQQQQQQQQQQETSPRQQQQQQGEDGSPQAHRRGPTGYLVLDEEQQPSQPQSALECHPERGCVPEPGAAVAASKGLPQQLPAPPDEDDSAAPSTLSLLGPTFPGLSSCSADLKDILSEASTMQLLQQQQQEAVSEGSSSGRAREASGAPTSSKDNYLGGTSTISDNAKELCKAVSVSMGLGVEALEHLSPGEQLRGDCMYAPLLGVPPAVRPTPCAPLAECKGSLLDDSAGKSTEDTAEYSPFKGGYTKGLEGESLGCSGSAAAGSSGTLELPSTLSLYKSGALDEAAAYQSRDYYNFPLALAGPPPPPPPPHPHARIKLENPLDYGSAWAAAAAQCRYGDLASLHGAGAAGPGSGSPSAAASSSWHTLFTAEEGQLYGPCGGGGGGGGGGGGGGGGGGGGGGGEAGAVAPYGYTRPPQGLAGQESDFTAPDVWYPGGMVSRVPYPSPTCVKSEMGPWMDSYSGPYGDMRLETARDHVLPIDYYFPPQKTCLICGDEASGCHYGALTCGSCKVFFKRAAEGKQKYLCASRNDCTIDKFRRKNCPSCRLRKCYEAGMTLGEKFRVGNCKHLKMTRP
# [2] = Homo sapiens, 22Rv1, 144 h, read-out: 22RV1 IC50 (nM), 22RV1 cells, 6 days culture, CCK-8, OD 450 nm
Structure (SMILES),DC50 [1],IC50 (22RV1 cells; [2]),"IC50 (22RV1 cells; read-out: 22RV1 IC50, 22RV1 cells, 6 days culture, CCK-8, OD 450 nm)"
CCC(O)c1ncc(Oc2ccc(C(C)(C)c3ccc(O[C@H]4C[C@H](Nc5ccc6c(c5)C(=O)N(C5CCC(=O)NC5=O)C6=O)C4)cc3)cc2)cn1 (some centres unmarked) [Example 428],< 10 nM,6 nM,–
CCC(CC)(c1ccc(Oc2ccc(C(C)O)nn2)cc1)c1ccc(O[C@H]2C[C@@H](Nc3ccc4c(c3)C(=O)N(C3CCC(=O)NC3=O)C4=O)C2)cc1 (some centres unmarked) [Example 430],< 10 nM,9 nM,–
"CCC(CC)(c1ccc(Oc2ccc(C(C)=O)nn2)cc1)c1ccc(OC2CC(Nc3ccc4c(c3)C(=O)N(C3CCC(=O)NC3=O)C4=O)C2)cc1 (centres unmarked) [Example 431, 5-((1s,3s)-3-(4-(3-(4-((6-acetylpyridazine-3-yl)oxy)phenyl)pentan-3-yl)phenoxy)cyclobutyl)amino)-2-(2,6-dioxopyridin-3-yl)isoindol-1,3-dione]",< 10 nM,–,4 nM
"CC(C)(c1ccc(OCCCNc2ccc3c(c2)C(=O)N(C2CCC(=O)NC2=O)C3=O)cc1)c1ccc(OCc2ccnc(NC3CC3)n2)cc1 (centres unmarked) [Example 444, 5-((3-(4-(2-(4-((2-(cyclopropylamino)pyrimidin-4-yl)methoxy)phenyl)propan-2-yl)phenoxy)propyl)amino)-2-(2,6-dioxopiperidin-3-yl)isoindolin-1,3-dione]",11 to 100 nM,62 nM,–
"COc1nccc(COc2ccc(C(C)(C)c3ccc(OC4CC(Nc5ccc6c(c5)C(=O)N(C5CCC(=O)NC5=O)C6=O)C4)cc3)cc2)n1 (centres unmarked) [Example 447, 2-(2,6-dioxopiperidin-3-yl)-5-((3-(4-(2-(4-((2-methoxypyrimidin-4-yl)methoxy)phenyl)propan-2-yl)phenoxy)cyclobutyl)amino) isoindolin-1,3-dione]",< 10 nM,8 nM,–
"COc1nccc(COc2ccc(C(C)(C)c3ccc(O[C@H]4C[C@H](Nc5ccc6c(c5)C(=O)N(C5CCC(=O)NC5=O)C6=O)C4)cc3)cc2)n1 (some centres unmarked) [Example 449, 2-(2,6-dioxopiperidin-3-yl)-5-(((1r,3r)-3-(4-(2-(4-((2-methoxypyrimidin-4-yl)methoxy)phenyl)propan-2-yl)phenoxy)cyclobutyl)amino) isoindolin-1,3-dione]",11 to 100 nM,10 nM,–
"CC1CN(c2nccc(COc3ccc(C(C)(C)c4ccc(O[C@H]5C[C@H](Nc6ccc7c(c6)C(=O)N(C6CCC(=O)NC6=O)C7=O)C5)cc4)cc3)n2)CCN1C (some centres unmarked) [Example 450, 5-(((1r,3r)-3-(4-(2-(4-((2-(3,4-dimethylpiperazin-1-yl)pyrimidin-4-yl)methoxy)phenyl)propan-2-yl)phenoxy)cyclobutyl)amino)-2-(2,6-dioxopiperidin-3-yl)isoindolin-1,3-dione]",11 to 100 nM,8 nM,–
"CC(C)(c1ccc(OCc2ccnc(N3CCNCC3)n2)cc1)c1ccc(OC2CC(Nc3ccc4c(c3)C(=O)N(C3CCC(=O)NC3=O)C4=O)C2)cc1 (centres unmarked) [Example 451, 2-(2,6-dioxopiperidin-3-yl)-5-((3-(4-(2-(4-((2-(piperazin-1-yl)pyrimidin-4-yl)methoxy)phenyl)propan-2-yl)phenoxy)cyclobutyl)amino)isoindolin-1,3-dione]",< 10 nM,11 nM,–
CC(C)(c1ccc(OCc2ccnc(N3CC(O)C3)n2)cc1)c1ccc(O[C@H]2C[C@@H](Nc3ccc4c(c3)C(=O)N(C3CCC(=O)NC3=O)C4=O)C2)cc1 (some centres unmarked) [Example 453],< 10 nM,6 nM,–
Cc1nnc(-c2cccc(COc3ccc(C(C)(C)c4ccc(O[C@H]5C[C@H](Nc6ccc7c(c6)C(=O)N(C6CCC(=O)NC6=O)C7=O)C5)cc4)cc3)n2)o1 (some centres unmarked) [Example 463],< 10 nM,11 nM,–
"CC(C)(c1ccc(OCc2ccnc(-c3nnco3)n2)cc1)c1ccc(O[C@H]2C[C@H](Nc3ccc4c(c3)C(=O)N(C3CCC(=O)NC3=O)C4=O)C2)cc1 (some centres unmarked) [Example 468, 5-(((1r,3r)-3-(4-(2-(4-((2-(1,3,4-oxadiazol-2-yl)pyrimidin-4-yl)methoxy)phenyl)propan-2-yl)phenoxy)cyclobutyl)amino)-2-(2,6-dioxopiperidin-3-yl)isoindolin-1,3-dione]",< 10 nM,5 nM,–
"CC(C)(c1ccc(OCc2cccc(-c3nnco3)n2)cc1)c1ccc(O[C@H]2C[C@H](Nc3ccc4c(c3)C(=O)N(C3CCC(=O)NC3=O)C4=O)C2)cc1 (some centres unmarked) [Example 470, 5-(((1r,3r)-3-(4-(2-(4-((6-(1,3,4-oxadiazol-2-yl)pyridin-2-yl)methoxy)phenyl)propan-2-yl)phenoxy)cyclobutyl)amino)-2-(2,6-dioxopiperidin-3-yl)isoindolin-1,3-dione]",< 10 nM,7 nM,–
"CC(C)(c1ccc(Oc2ccnc(-n3ccnn3)n2)cc1)c1ccc(O[C@H]2C[C@H](Nc3ccc4c(c3)C(=O)N(C3CCC(=O)NC3=O)C4=O)C2)cc1 (some centres unmarked) [Example 471, 5-(((1r,3r)-3-(4-(2-(4-((2-(1H-1,2,3-triazol-1-yl)pyrimidin-4-yl)oxy)phenyl)propan-2-yl)phenoxy)cyclobutyl)amino)-2-(2,6-dioxopiperidin-3-yl)isoindolin-1,3-dione]",< 10 nM,17 nM,–
Cc1nnc(-c2ncc(Oc3ccc(C(C)(C)c4ccc(O[C@H]5C[C@H](Nc6ccc7c(c6)C(=O)N(C6CCC(=O)NC6=O)C7=O)C5)cc4)cc3)cn2)o1 (some centres unmarked) [Example 473],11 to 100 nM,5 nM,–
CC(C)(c1ccc(Oc2cnc(-n3ccnn3)nc2)cc1)c1ccc(O[C@H]2C[C@H](Nc3ccc4c(c3)C(=O)N(C3CCC(=O)NC3=O)C4=O)C2)cc1 (some centres unmarked) [Example 476],11 to 100 nM,14 nM,–
CC(C)(c1ccc(Oc2ccc(CN3CC(F)C3)nn2)cc1)c1ccc(O[C@H]2C[C@H](Nc3ccc4c(c3)C(=O)N(C3CCC(=O)NC3=O)C4=O)C2)cc1 (some centres unmarked) [Example 478],< 10 nM,6 nM,–

# Further lines, results first:
DC50 [1],IC50 (22RV1 cells; [2]),"IC50 (22RV1 cells; read-out: 22RV1 IC50, 22RV1 cells, 6 days culture, CCK-8, OD 450 nm)",Structure (SMILES)
< 10 nM,9 nM,–,"Cc1nnc(Oc2ccc(C(C)(C)c3ccc(O[C@H]4C[C@H](Nc5ccc6c(c5)C(=O)N(C5CCC(=O)NC5=O)C6=O)C4)cc3)cc2)o1 (some centres unmarked) [Example 429, 2-(2,6-dioxopiperidin-3-yl)-5-((1r,3r)-3-(4-(2-(4-((5-methyl-1,3,4-oxadiazol-2-yl)oxy)phenyl)propan-2-yl)phenoxy)cyclobutyl)aminoisoindol-1,3-dione]"
< 10 nM,7 nM,–,CNC(=O)c1ncc(Oc2ccc(C(C)(C)c3ccc(O[C@H]4C[C@H](Nc5ccc6c(c5)C(=O)N(C5CCC(=O)NC5=O)C6=O)C4)cc3)cc2)cn1 (some centres unmarked) [Example 432]
< 10 nM,6 nM,–,"CC(C)(c1ccc(Oc2cnc(-n3nccn3)nc2)cc1)c1ccc(O[C@H]2C[C@H](Nc3ccc4c(c3)C(=O)N(C3CCC(=O)NC3=O)C4=O)C2)cc1 (some centres unmarked) [Example 436, 5-(((1r,3r)-3-(4-(2-(4-((2-(2H-1,2,3-triazol-2-yl)pyrimidin-5-yl)oxy)phenyl)propan-2-yl)phenoxy)cyclobutyl)amino)-2-(2,6-dioxopiperidin-3-yl)isoindolin-1,3-dione]"
< 10 nM,5 nM,–,"CC(C)(c1ccc(OCc2ccnc(-n3ccnn3)n2)cc1)c1ccc(O[C@H]2C[C@@H](Nc3ccc4c(c3)C(=O)N(C3CCC(=O)NC3=O)C4=O)C2)cc1 (some centres unmarked) [Example 445, 5-(((1s,3s)-3-(4-(2-(4-((2-(1H-1,2,3-triazol-1-yl)pyrimidin-4-yl)methoxy)phenyl)propan-2-yl)phenoxy)cyclobutyl)amino)-2-(2,6-dioxopiperidin-3-yl)isoindolin-1,3-dione]"
11 to 100 nM,11 nM,–,CC1CN(c2nccc(COc3ccc(C(C)(C)c4ccc(OC5CC(Nc6ccc7c(c6)C(=O)N(C6CCC(=O)NC6=O)C7=O)C5)cc4)cc3)n2)CCN1C (centres unmarked) [Example 448]
11 to 100 nM,8 nM,–,"CC1CN(c2nccc(COc3ccc(C(C)(C)c4ccc(OC5CC(Nc6ccc7c(c6)C(=O)N(C6CCC(=O)NC6=O)C7=O)C5)cc4)cc3)n2)CC(C)N1 (centres unmarked) [Example 452, 5-((3-(4-(2-(4-((2-(3,5-dimethylpiperazin-1-yl)pyrimidin-4-yl)methoxy)phenyl)propan-2-yl)phenoxy)cyclobutyl)amino)-2-(2,6-dioxopiperidin-3-yl)isoindolin-1,3-dione]"
< 10 nM,11 nM,–,CC(C)(c1ccc(OCc2ccnc(-n3cnnc3)n2)cc1)c1ccc(O[C@H]2C[C@@H](Nc3ccc4c(c3)C(=O)N(C3CCC(=O)NC3=O)C4=O)C2)cc1 (some centres unmarked) [Example 461]
< 10 nM,3 nM,–,Cc1nnc(-c2nccc(COc3ccc(C(C)(C)c4ccc(O[C@H]5C[C@@H](Nc6ccc7c(c6)C(=O)N(C6CCC(=O)NC6=O)C7=O)C5)cc4)cc3)n2)o1 (some centres unmarked) [Example 465]
< 10 nM,9 nM,–,"CC(C)(c1ccc(Oc2cncnc2)cc1)c1ccc(O[C@H]2C[C@H](Nc3ccc4c(c3)C(=O)N(C3CCC(=O)NC3=O)C4=O)C2)cc1 (some centres unmarked) [Example 477, 2-(2,6-dioxopiperidin-3-yl)-5-(((1r,3r)-3-(4-(2-(4-(pyrimidin-5-yloxy)phenyl)propan-2-yl)phenoxy)cyclobutyl)amino)isoindolin-1,3-dione]"
